For one test, the system named is HCT116 MTAP+/+. The test is described as follows: Inhibition of cellular proliferation (Cell Titer Glo), HCT116 MTAP+/+. Type of test: cell-based. The following applies: Homo sapiens, HCT-116, 96 h, Table 5a, 4 days, read-out: 4 Day Relative Growth Inhibition (MTAP +/+). The protocol: (§1) Test compound impact on cancer cell growth was assessed by treating cancer cells with compound for 4 days and then measuring proliferation using an ATP-based cell proliferation readout (Cell Titer Glo, Promega Corporation).
(§2) In a typical assay an isogenic pair of HCT116 human colon carcinoma cell lines which vary only in MTAP deletion status (HCT116 MTAP+/+ and HCT116 MTAP−/−) were plated in 96-well dishes at appropriate cell density. Following 24 hours, cells were then treated with the candidate MAT2A inhibitor. […] Compound was then transferred to a working stock plate in cell culture media by adding 5 μL of compound in DMSO to 495 μL of cell culture media. This working stock was then added to cells via a further 5-fold dilution, by adding 25 μL of working stock to 100 μL of cells in culture media. Following compound addition, cells were incubated at 37° C./5% CO2 for 4 days.
(§3) The plate was then covered with aluminum foil and shaken for 15 minutes to ensure complete mixing and full cell lysis. […] This luminescence measure was converted to a proliferation index by subtracting from each data point the ATP luminescence signal measured from a bank (no cells) well and dividing by the ATP luminescence signal measured in 0.2% DMSO control well adjusted for signal in blank well.

Test [1] relates to SAM in HCT116 MTAP-deleted cells. The test is described as follows: Cellular assay of target engagement (SAM), LC-MS/MS. Type of test: cell-based, human. The following applies: Homo sapiens, HCT-116, Table 5a, 72 h, read-out: Cell 72 h SAM Inhibition (MTAP −/−). The protocol: Measurement of MAT2A activity in cells was made by direct quantitation of the abundance of the product of its enzymatic activity, SAM. Cancer cells were treated with candidate MAT2A inhibitors for a suitable incubation period, and the cells were then lysed using a reagent which quenched any further enzyme activity. Soluble metabolites including SAM were collected and SAM itself was directly measured from the lysate using quantitative LC-MS/MS.
A typical assay was performed using an HCT116 human colon carcinoma cell line which was genetically engineered to delete the MTAP gene (commercially available from Horizon Discovery). […] Cells were plated in 96-well dishes at appropriate cell density. Following 24 hours, cells were then treated with the candidate MAT2A inhibitor. […] Compound was then transferred to a working stock plate in cell culture media by adding 5 μL of compound in DMSO to 495 μL of cell culture media. This working stock was then added to cells via a further 5-fold dilution, by adding 25 μL of working stock to 100 μL of cells in culture media. Following compound addition, cells were incubated at 37° C./5% CO2 for 72 hrs.
To quantitate SAM levels following compound treatment, cells were gently washed once in ammonium carbonate buffer (75 mM at pH 7.4), placed on dry ice, and lysed with metabolite extraction buffer (80% cold methanol and 20% water (v/v) with acetic acid at 1M final concentration with 200 ng/mL deuterated d3-SAM as internal control). Following centrifugation at 4° C. at 3,200 rpm for 30 minutes, the supernatant was collected and stored at −80° C. until analysis by Liquid Chromatography with tandem Mass Spectrometry (LC-MS/MS). LC-MS/MS analysis was performed using an API6500 Mass Spectrometer (Sciex, Framingham, Mass., USA) operating in positive ion spray mode and equipped with a Waters UPLC Acquity (Waters, Milford, Mass., USA) BEH Amide column.

For another test, the system named is HCT116 MTAP-/-. The experiment in a line: Inhibition of cellular proliferation (Cell Titer Glo), HCT116 MTAP-/-. It is filed as cell-based, human. The following applies: Homo sapiens, HCT-116, 96 h, Table 5a, 4 days, read-out: 4 Day Relative Growth Inhibition (MTAP −/−). The protocol:
as §1, §2, §3

Another test concerns the target T1, MAT2A homodimer (Homo sapiens, UniProt P31153).
T1 construct: inferred from the Ni sepharose purification and imidazole elution; made in house; host or cells: SF9 insect cells, recombinant baculovirus (Bac to Bac, pFASTBAC1)
The experiment in a line: MAT2A biochemical assay (liberated phosphate, PiColorLock Gold). The following applies: Table 5a; MAT2A biochemical assay; read-out: Enzyme Inhibition. The gist of the method: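 Baculovirus/Sf9-expressed, Ni-purified MAT2A homodimer preincubated with compound 60 min at 25 °C, then reacted 60 min at 25 °C with substrate mix of 500 μM ATP and 400 μM L-methionine, pH 7.0 (mix, not final levels). Phosphate released with SAM measured by PiColorLock Gold against phosphate standard curve.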

In US20220098203A1 (priority 2018, published 2022) one finds IC50 data, which are given here for 9 compounds.

T1 sequence (P31153 whole entry): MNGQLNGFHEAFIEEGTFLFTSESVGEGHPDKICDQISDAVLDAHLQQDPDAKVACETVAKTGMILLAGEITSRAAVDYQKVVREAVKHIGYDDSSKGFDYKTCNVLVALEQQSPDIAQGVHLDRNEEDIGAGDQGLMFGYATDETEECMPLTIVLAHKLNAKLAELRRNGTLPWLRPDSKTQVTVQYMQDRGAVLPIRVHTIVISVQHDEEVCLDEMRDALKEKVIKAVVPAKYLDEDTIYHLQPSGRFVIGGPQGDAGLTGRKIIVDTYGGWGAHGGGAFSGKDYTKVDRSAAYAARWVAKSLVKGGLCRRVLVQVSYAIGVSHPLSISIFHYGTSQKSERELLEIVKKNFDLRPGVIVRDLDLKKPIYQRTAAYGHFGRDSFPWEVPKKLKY

For the compound `CCOc1ccc2c(n1)N(c1ccc(OC)cc1)C(=O)N(c1ccc3ncn(C)c3c1)C2` [Example 138, 7-ethoxy-1-(4-methoxyphenyl)-3-(1-methyl-1H-benzo[d]imidazol-6-yl)-3,4-dihydropyrido[2,3-d]pyrimidin-2(1H)-one], the IC50 is more than 1000 nM with HCT116 MTAP+/+, less than 100 nM in test [1], 100 to 1000 nM in the test on HCT116 MTAP-/- and less than 100 nM at MAT2A homodimer.
On to `COc1ccc(N2C(=O)N(c3ccc4ncn(C)c4c3)Cc3ccc(OCC(F)F)nc32)cc1` [Example 139, 7-(2,2-difluoroethoxy)-1-(4-methoxyphenyl)-3-(1-methyl-1H-benzo[d]imidazol-6-yl)-3,4-dihydropyrido[2,3-d]pyrimidin-2(1H)-one], for which the IC50 is more than 1000 nM in the test on HCT116 MTAP+/+, less than 100 nM in test [1], less than 100 nM with HCT116 MTAP-/- and less than 100 nM on MAT2A homodimer.
For the compound `Cn1cnc2ccc(N3Cc4ccc(OCC(F)F)nc4N(c4ccc(OC(F)F)cc4)C3=O)cc21` [Example 140, 7-(2,2-difluoroethoxy)-1-(4-(difluoromethoxy)phenyl)-3-(1-methyl-1H-benzo[d]imidazol-6-yl)-3,4-dihydropyrido[2,3-d]pyrimidin-2(1H)-one], the IC50 in the test on HCT116 MTAP+/+ is more than 1000 nM; in test [1], less than 100 nM; in the test with HCT116 MTAP-/-, less than 100 nM; at MAT2A homodimer, less than 100 nM.
Consider `COc1ccc(N2C(=O)N(c3ccc4nn(C)cc4c3)Cc3ccc(OCC(F)F)nc32)cc1` [Example 141, 7-(2,2-difluoroethoxy)-1-(4-methoxyphenyl)-3-(2-methyl-2H-indazol-5-yl)-3,4-dihydropyrido[2,3-d]pyrimidin-2(1H)-one], for which the IC50 in the test with HCT116 MTAP+/+ was 100 to 1000 nM; in test [1], less than 100 nM; with HCT116 MTAP-/-, less than 100 nM; on MAT2A homodimer, less than 100 nM.
Regarding `CCOc1ccc2c(n1)N(c1ccc(OC)nc1)C(=O)N(c1ccc3nn(C)cc3c1)C2` [Example 142, 7-ethoxy-1-(6-methoxypyridin-3-yl)-3-(2-methyl-2H-indazol-5-yl)-3,4-dihydropyrido[2,3-d]pyrimidin-2(1H)-one], the IC50 in the test with HCT116 MTAP+/+ is more than 1000 nM; in test [1], less than 100 nM; in the test on HCT116 MTAP-/-, 100 to 1000 nM; on MAT2A homodimer, less than 100 nM.
Take `CCOc1ccc2c(n1)N(c1ccc(OC)cc1)C(=O)N(c1ccc3nn(C)cc3c1)C2` [Example 143, 7-ethoxy-1-(4-methoxyphenyl)-3-(2-methyl-2H-indazol-5-yl)-3,4-dihydropyrido[2,3-d]pyrimidin-2(1H)-one]: the IC50 with HCT116 MTAP+/+ is more than 1000 nM; in test [1], less than 100 nM; in the test with HCT116 MTAP-/-, 100 to 1000 nM; on MAT2A homodimer, less than 100 nM.
Take `Cn1cc2cc(N3Cc4ccc(OC5CC5)nc4N(c4ccc(OC(F)F)cc4)C3=O)ccc2n1` [Example 144, 7-cyclopropoxy-1-(4-(difluoromethoxy)phenyl)-3-(2-methyl-2H-indazol-5-yl)-3,4-dihydropyrido[2,3-d]pyrimidin-2(1H)-one]: the IC50 with HCT116 MTAP+/+ is more than 1000 nM; in test [1], less than 100 nM; in the test on HCT116 MTAP-/- it was 100 to 1000 nM; on MAT2A homodimer, less than 100 nM.
Turning to `Cn1cc2cc(N3Cc4ccc(OCC(F)F)nc4N(c4ccc(OC(F)F)cc4)C3=O)ccc2n1` [Example 145, 7-(2,2-difluoroethoxy)-1-(4-(difluoromethoxy)phenyl)-3-(2-methyl-2H-indazol-5-yl)-3,4-dihydropyrido[2,3-d]pyrimidin-2(1H)-one], the IC50 in the test on HCT116 MTAP+/+ is more than 1000 nM; in test [1], less than 100 nM; in the test on HCT116 MTAP-/-, less than 100 nM; at MAT2A homodimer, less than 100 nM.
Consider `CCOc1ccc2c(n1)N(c1ccc(Cl)cc1)C(=O)N(c1ccc3nn(C)cc3c1)C2` [Example 146, 1-(4-chlorophenyl)-7-ethoxy-3-(2-methyl-2H-indazol-5-yl)-3,4-dihydropyrido[2,3-d]pyrimidin-2(1H)-one], for which the IC50 is more than 1000 nM with HCT116 MTAP+/+, less than 100 nM in test [1], 100 to 1000 nM with HCT116 MTAP-/- and less than 100 nM at MAT2A homodimer.
